Source: patent US20260242391A1 (priority 2023, published 2026)

Key:
in vitro = settings: human
HL-60 = HL-60 differentiation potency; format: cell-based; settings: Homo sapiens

Row | SMILES | IC50 (in vitro) [nM] | EC50 (HL-60) [nM]
1 | C[C@H]1[C@@H](OCC23CCC(C(=O)O)(CC2)CC3)O[C@@H]2O[C@@]3(C)CC[C@H]4[C@H](C)CC[C@@H]1[C@@]24OO3 [Compound 75, 4-((((3R,5aS,6R, 8aS,9R,10S,12R, 12aR)-3,6,9-trimethyldeca-hydro-12H-3,12-epoxy[1,2]dioxepino[4,3-i]isochromen-10-yl)oxy)methyl) bicyclo[2.2.2] octane-1-carboxylic acid] | > 20000 | 1180
2 | C[C@H]1[C@@H](OCCS(C)(=O)=O)O[C@@H]2O[C@@]3(C)CC[C@H]4[C@H](C)CC[C@@H]1[C@@]24OO3 [Compound 90, (3R,5aS,6R,8aS, 9R,10S,12R, 12aR)-3,6,9-trimethyl-10-(2-(methylsulfonyl)ethoxy)deca-hydro-12H-3,12-epoxy[1,2] dioxepino[4,3-i] isochromene] | > 20000 | > 20000
3 | C[C@H]1[C@H](OCc2cccc(C(=O)O)c2)O[C@@H]2O[C@@]3(C)CC[C@H]4[C@H](C)CC[C@@H]1[C@@]24OO3 [Compound 91, 3-((((3R,5aS,6R,8aS, 9R,10R,12R, 12aR)-3,6,9-trimethyldeca-hydro-12H-3,12-epoxy[1,2]dioxepino[4,3-i]isochromen-10-yl)oxy)methyl) benzoic acid] | > 20000 | 17500
4 | C[C@H]1[C@H](OCc2ccc(C(=O)O)c(Cl)c2)O[C@@H]2O[C@@]3(C)CC[C@H]4[C@H](C)CC[C@@H]1[C@@]24OO3 [Compound 92, 2-chloro-4-((((3R,5aS,6R, 8aS,9R,10R,12R, 12aR)-3,6,9-trimethyldeca-hydro-12H-3,12-epoxy[1,2]dioxepino[4,3-i]isochromen-10-yl)oxy)methyl) benzoic acid] | > 20000 | > 20000
5 | C[C@H]1[C@@H](OC(=O)CCC(O)c2ccc(Cl)cc2)O[C@@H]2O[C@@]3(C)CC[C@H]4[C@H](C)CC[C@@H]1[C@@]24OO3 (stereo partly drawn) [Compound 93, (3R,5aS,6R,8aS, 9R,10R,12R, 12aR)-3,6,9-trimethyldeca-hydro-12H-3,12-epoxy[1,2] dioxepino[4,3-i] isochromen-10-yl 4-(4-chlorophenyl)-4-hydroxybutanoate] | 87.7 | 78.6
6 | C[C@H]1[C@H](NCCc2ccccc2)O[C@@H]2O[C@@]3(C)CC[C@H]4[C@H](C)CC[C@@H]1[C@@]24OO3 [Compound 94, (3R,5aS,6R,8aS, 9R,10R,12R, 12aR)-3,6,9-trimethyl-N-phenethyldeca-hydro-12H-3,12-epoxy[1,2] dioxepino[4,3-i] isochromen-10-amine] | 315 | 257
7 | CNC(=O)CCN[C@@H]1O[C@@H]2O[C@@]3(C)CC[C@H]4[C@H](C)CC[C@@H]([C@H]1C)[C@@]24OO3 [Compound 95, N-methyl-3-(((3R,5aS,6R,8aS, 9R,10R,12R, 12aR)-3,6,9-trimethyldeca-hydro-12H-3,12-epoxy[1,2]dioxepino[4,3-i]isochromen-10-yl)amino) propanamide] | 352 | 348
8 | C[C@H]1[C@H](NCCC(N)=O)O[C@@H]2O[C@@]3(C)CC[C@H]4[C@H](C)CC[C@@H]1[C@@]24OO3 [Compound 96, 3-(((3R,5aS,6R,8aS, 9R,10R,12R, 12aR)-3,6,9-trimethyldeca-hydro-12H-3,12-epoxy[1,2]dioxepino[4,3-i]isochromen-10-yl)amino) propanamide] | 1980 | 1700
9 | CNS(=O)(=O)CCN[C@@H]1O[C@@H]2O[C@@]3(C)CC[C@H]4[C@H](C)CC[C@@H]([C@H]1C)[C@@]24OO3 [Compound 97, N-methyl-2-(((3R,5aS,6R,8aS, 9R,10R,12R, 12aR)-3,6,9-trimethyldeca-hydro-12H-3,12-epoxy[1,2]dioxepino[4,3-i]isochromen-10-yl)amino)ethane-1-sulfonamide] | 2080 | 2340
10 | C[C@H]1[C@H](NCc2ccncc2)O[C@@H]2O[C@@]3(C)CC[C@H]4[C@H](C)CC[C@@H]1[C@@]24OO3 [Compound 98, (3R,5aS,6R,8aS, 9R,10R,12R, 12aR)-3,6,9-trimethyl-N-(pyridin-4-ylmethyl)deca-hydro-12H-3,12-epoxy[1,2] dioxepino[4,3-i] isochromen-10-amine] | > 20000 | > 20000
11 | C[C@H]1[C@H](NCCS(C)(=O)=O)O[C@@H]2O[C@@]3(C)CC[C@H]4[C@H](C)CC[C@@H]1[C@@]24OO3 [Compound 99, (3R,5aS,6R,8aS, 9R,10R,12R, 12aR)-3,6,9-trimethyl-N-(2-(methylsulfonyl)ethyl)decahydro-12H-3,12-epoxy [1,2]dioxepino [4,3-i]isochromen-10-amine] | 743 | 660
12 | C[C@H]1[C@H](NCCCS(C)(=O)=O)O[C@@H]2O[C@@]3(C)CC[C@H]4[C@H](C)CC[C@@H]1[C@@]24OO3 [Compound 100, (3R,5aS,6R,8aS, 9R,10R,12R, 12aR)-3,6,9-trimethyl-N-(3-(methylsulfonyl)propyl)deca-hydro-12H-3,12-epoxy[1,2] dioxepino[4,3-i] isochromen-10-amine] | 535 | 498
13 | C[C@H]1[C@H](NCc2ccccc2)O[C@@H]2O[C@@]3(C)CC[C@H]4[C@H](C)CC[C@@H]1[C@@]24OO3 [Compound 101, (3R,5aS,6R,8aS, 9R,10R,12R, 12aR)-N-benzyl-3,6,9-trimethyldeca-hydro-12H-3,12-epoxy[1,2] dioxepino[4,3-i] isochromen-10-amine] | 1320 | 835
14 | C[C@H]1[C@H](N(C)Cc2ccc(C(=O)O)cc2)O[C@@H]2O[C@@]3(C)CC[C@H]4[C@H](C)CC[C@@H]1[C@@]24OO3 [Compound 102, 4-((methyl((3R, 5aS,6R,8aS,9R, 10R,12R,12aR)-3,6,9-trimethyldeca-hydro-12H-3,12-epoxy[1,2]dioxepino[4,3-i]isochromen-10-yl)amino)methyl) benzoic acid] | > 20000 | > 20000
15 | C[C@H]1[C@H](N(C)C23CC(C(=O)O)(C2)C3)O[C@@H]2O[C@@]3(C)CC[C@H]4[C@H](C)CC[C@@H]1[C@@]24OO3 [Compound 103, 3-(methyl((3R,5aS, 6R,8aS,9R,10R, 12R,12aR)-3,6,9-trimethyldeca-hydro-12H-3,12-epoxy[1,2]dioxepino[4,3-i]isochromen-10-yl)amino)bicyclo [1.1.1]pentane-1-carboxylic acid] | > 20000 | > 20000
16 | C[C@H]1[C@@H](Oc2ccc(CC(=O)NC(C)(C)C)cc2)O[C@@H]2O[C@@]3(C)CC[C@H]4[C@H](C)CC[C@@H]1[C@@]24OO3 [Compound 104, N-(tert-butyl)-2-(4-(((3R,5aS,6R,8aS, 9R,10S,12R, 12aR)-3,6,9-trimethyldeca-hydro-12H-3,12-epoxy[1,2]dioxepino[4,3-i]isochromen-10-yl)oxy)phenyl) acetamide] | 160 | 52.3
17 | C[C@H]1[C@H](OCC2CCC(F)(F)CC2)O[C@@H]2O[C@@]3(C)CC[C@H]4[C@H](C)CC[C@@H]1[C@@]24OO3 [Compound 105, (3R,5aS,6R,8aS, 9R,10R,12R, 12aR)-10-((4,4-difluorocyclo-hexyl)methoxy)-3,6,9-trimethyldeca-hydro-12H-3,12-epoxy[1,2] dioxepino[4,3-i] isochromene] | 200 | 48.4
18 | C[C@H]1[C@@H](OCC2CCC(F)(F)CC2)O[C@@H]2O[C@@]3(C)CC[C@H]4[C@H](C)CC[C@@H]1[C@@]24OO3 [Compound 106, (3R,5aS,6R,8aS, 9R,10S,12R, 12aR)-10-((4,4-difluorocyclo-hexyl)methoxy)-3,6,9-trimethyldeca-hydro-12H-3,12-epoxy[1,2] dioxepino[4,3-i] isochromene] | 100 | 20.4
19 | C[C@H]1[C@@H](Oc2ccc(-c3ccc(C(=O)O)cc3)cc2)O[C@@H]2O[C@@]3(C)CC[C@H]4[C@H](C)CC[C@@H]1[C@@]24OO3 [Compound 107, 4′-(((3R,5aS,6R,8aS, 9R,10S,12R, 12aR)-3,6,9-trimethyldeca-hydro-12H-3,12-epoxy[1,2]dioxepino[4,3-i]isochromen-10-yl)oxy)-[1,1′-biphenyl]-4-carboxylic acid] | 40 | 23.5
20 | C[C@H]1[C@@H](OCc2ccc(C(=O)O)cc2Cl)O[C@@H]2O[C@@]3(C)CC[C@H]4[C@H](C)CC[C@@H]1[C@@]24OO3 [Compound 119, 3-chloro-4-((((3R,5aS,6R, 8aS,9R,10S,12R, 12aR)-3,6,9-trimethyldeca-hydro-12H-3,12-epoxy[1,2]dioxepino[4,3-i]isochromen-10-yl)oxy)methyl) benzoic acid] | > 20000 | 110
21 | C[C@H]1[C@@H](Oc2ccc(C3(C(=O)O)CC3)cc2)O[C@@H]2O[C@@]3(C)CC[C@H]4[C@H](C)CC[C@@H]1[C@@]24OO3 [Compound 124, 1-(4-(((3R,5aS,6R,8aS, 9R,10S,12R, 12aR)-3,6,9-trimethyldeca-hydro-12H-3,12-epoxy[1,2]dioxepino[4,3-i]isochromen-10-yl)oxy)phenyl) cyclopropane-1-carboxylic acid] | 2450 | 28.8
22 | C[C@H]1[C@@H](Oc2ccc(C(C)(C)C(=O)O)cc2)O[C@@H]2O[C@@]3(C)CC[C@H]4[C@H](C)CC[C@@H]1[C@@]24OO3 [Compound 126, 2-methyl-2-(4-(((3R,5aS,6R,8aS, 9R,10S,12R, 12aR)-3,6,9-trimethyldeca-hydro-12H-3,12-epoxy[1,2]dioxepino[4,3-i]isochromen-10-yl)oxy)phenyl) propanoic acid] | 5500 | 15.6
23 | C[C@H]1[C@@H](OCC2(C(=O)O)CCC2)O[C@@H]2O[C@@]3(C)CC[C@H]4[C@H](C)CC[C@@H]1[C@@]24OO3 [Compound 127, 1-((((3R,5aS,6R, 8aS,9R,10S,12R, 12aR)-3,6,9-trimethyldeca-hydro-12H-3,12-epoxy[1,2]dioxepino[4,3-i]isochromen-10-yl)oxy)methyl) cyclobutane-1-carboxylic acid] | > 20000 | 8880
24 | C[C@H]1[C@H](Oc2ccc(C(=O)C(=O)O)cc2)O[C@@H]2O[C@@]3(C)CC[C@H]4[C@H](C)CC[C@@H]1[C@@]24OO3 [Compound 129, 2-oxo-2-(4-(((3R,5aS,6R,8aS, 9R,10R,12R, 12aR)-3,6,9-trimethyldeca-hydro-12H-3,12-epoxy[1,2]dioxepino[4,3-i]isochromen-10-yl)oxy)phenyl) acetic acid] | 10500 | 3380
